From patent US20120128667A1 (ONCOZYME PHARMA INC., priority 2009, published 2012)
“And” between values parts separate entries of the source, which are not always exact repeats. Equal values may be shown once. “Also recorded” adds a separate entry of the source. Read-outs that look alike come from different tables or passages of the source.

Assays:
[1] = repeated dosing; cited from earlier work
[2] = test system: BxPC3 human pancreas xenograft; conditions: IP bi-weekly; Pentamidine 45 mg/kg, Gemcitabine 150 mg/kg
Method: BxPC3 cells were transplanted subcutaneously into the flank of each animal as a suspension of tumor cells (5×10^6 cells in 0.1 mL in PBS) on Jan. […] Transplantation was performed under a laminar airflow hood. […] Animals were labeled using the “ear punching” method so that for each group, all 10 animals could be distinguished. Each group of 10 mice was housed in 2 separate cages of 5 mice each; animal numbers 1 to 5 were housed in Cage A and animal numbers 6 to 10 were housed in Cage B.
Prior to every dosing injection, each animal was weighed and received their respective formulations. […] Mice in group 3 were treated intraperitoneally, bi-weekly (Tuesday-Friday) at 150 mg/kg with Gemcitabine for eleven weeks. […] The dose volume was 30 mL/kg for mice treated intraperitoneally.
At termination, when the tumor volume of one of the mice in the group reached 1500 mm^3, the whole group was sacrificed, and animals were anaesthetized using isoflurane and sacrificed by cervical dislocation.

[3] = test system: metastatic colorectal cancer (mCRC); assay: Phase I/II trial of pentamidine with chemotherapy in previously treated mCRC (Example 5); assay type: in vivo, human
[4] = test system: HT29 (colon cancer (adenocarcinoma, primary tumor)); assay: cells; conditions: for Percentage of cells killed: HT29; for CC50: Homo sapiens
Method: (§1) Cell Survival-MTT assay: The MTT (3-[4,5-Dimethylthiazol-2-yl]-2,5 diphenyl tertrazolim bromide) method of determining cell growth/cytotoxicity was used to determine cell survival. MTT is a tetrazolium salt that binds to b mitochondrial dehydrogenases of living cells. Binding converts yellow, water soluble MTT to an insoluble, purple formazan crystal. The crystals are solubilized with a 50% N,N-dimethylformamide (vol/vol), 20% SDS (wt/vol) solution (pH 4.7), and absorbance is determined at a wavelength of 570 nm. Unbound MTT is not detectable at this wavelength. The amount of bound MTT measured in the assay is proportional to the number of live cells present. (Niks and Otto 1990: “Towards an optimized MTT assay,” J. Immunol. Methods. 130, 149-151, Hussain et al. 1993; “A new approach for measurement of cytotoxicity using colorimetric assay,” J. Immunol. Methods. 160, 89-96).
(§2) Cells were harvested from cell cultures using the standard protocol (Trypsin/EDTA). The cells (1000 to 5000 cells in 50 μl of solution depending on cell type used) were then plated and incubated overnight at 37° C. before the addition of the agent or combination of agents.) After 2 days of incubation at 37° C., 10 μl of a 5 mg/ml solution of MTT was then added to all the wells and to a media control well. The plates were further incubated for 4 hours. A 100 μl of MTT solubilization buffer was added and the plates were incubated overnight at 37° C. The plates were then read on the ELISA plate reader with absorbance at 570 nm and a reference at 630 nm.
(§3) The effects of combinations were tested on three representative cancer cell lines: H661 (lung cancer (carcinoma)), MCF-7 (breast cancer (adenocarcinoma, pleural effusion)), and HT29 (colon cancer (adenocarcinoma, primary tumor)). Initial assays were carried out to determine the concentrations at which taxol, oxaliplatin, gemcitabine, or CPT 11 (also known as irinotecan) killed approximately 10% of the cells under investigation.

[5] = test system: H661 (lung cancer (carcinoma)); assay: cells; conditions: for Percentage of cells killed: H661; for CC50: Homo sapiens
Method: as §1, §2, §3

[6] = test system: MCF-7 (breast cancer (adenocarcinoma, pleural effusion)); assay: cells; conditions: for CC50: Homo sapiens; for Percentage of cells killed: MCF7
Method: as §1, §2, §3

metastatic colon cancer = assay: Phase I/IIa clinical trial colon cancer (Example 3); assay type: in vivo, human; conditions: interim results; I.V. pentamidine Day -2 and Day -1 before chemotherapy cycle
Text: (FOLFOX regimens contain oxaliplatin, FOLFIRI regimens contain CPT 11 also known as Irinotecan; and IROX regimens contain Irinotecan and Oxaliplatin). Patients may also receive bevacizumab (Avastin) as part of chemotherapy or cetuximab (Erbitux) or panitumumab (Vectibix). Twenty-two patients are enrolled to date.
A further dose is being given on Day −1.
Both dose escalation and treatment with pentamidine alone are at the discretion of the treating physician.
Almost all patients will have previously failed on their current treatment or a combination thereof.

[7] = injected slowly into patients; cited from earlier work
[8] = 13 evaluable pts, first 2 cycles
[9] = 13 evaluable pts, pentamidine before CTX
[10] = per patient, NCI CTCAEv3, pentamidine + CTX
[11] = preliminary analysis, pentamidine + CTX

In the case of `N=C(N)c1ccc(OCCCCCOc2ccc(C(=N)N)cc2)cc1` [Pentamidine], the “time after final dose at which pentamidine was detected in tissue” value [1] is listed as 25 days, the “effect in the treatment of pancreatic cancer (tumor growth, FIG. 3)” value [2] is listed as “beneficial effect” and the “DLT anorexia, share of pts” value [3, 8] is listed as 8%. For the same molecule, the “DLT hyperglycaemia, share of pts” value [3, 8] was 8%, the “Grade 3/4 AEs attributed to pentamidine: hyperglycaemia” value [3, 9] was 23% and the “Grade 3/4 AEs attributed to pentamidine: hyperlipasemia” value [3, 9] was 15%. For the same molecule, the “activity in mCRC that has progressed on standard lines of treatment (in words)” value ([3]; Pentamidine & CTX) was “disease stabilizing activity”, the “Reason for exiting the trial: Fatigue” value ([3]; initial 17 pts) was 12% and the “Reason for exiting the trial: Fatigue, number of pts” value ([3]; initial 17 pts) was 2. For the same molecule, the “Reason for exiting the trial: PD” value ([3]; initial 17 pts) was 35%, the “Reason for exiting the trial: PD, number of pts” value ([3]; initial 17 pts) was 6 and the “Reason for exiting the trial: Toxicity attributed to pentamidine” value ([3]; initial 17 pts) was 18%. For the same molecule, the “Reason for exiting the trial: Toxicity attributed to pentamidine, number of pts” value ([3]; initial 17 pts) was 3, the “Response at patient exit from trial: CR” value ([3]; initial 17 pts) was 0% and the “Response at patient exit from trial: CR, number of pts” value ([3]; initial 17 pts) was 0. For the same molecule, the “Response at patient exit from trial: PD” value ([3]; initial 17 pts) was 47%, the “Response at patient exit from trial: PD, number of pts” value ([3]; initial 17 pts) was 8 and the “Response at patient exit from trial: PR” value ([3]; initial 17 pts) was 0%. For the same molecule, the “Response at patient exit from trial: PR, number of pts” value ([3]; initial 17 pts) was 0, the “Response at patient exit from trial: SD” value ([3]; initial 17 pts) was 35% and the “Response at patient exit from trial: SD, number of pts” value ([3]; initial 17 pts) was 6. The “Best response during treatment: CR” value ([3]; initial 17 pts, RECIST) was 0%, the “Best response during treatment: CR, number of pts” value ([3]; initial 17 pts, RECIST) was 0 and the “Best response during treatment: PD” value ([3]; initial 17 pts, RECIST) was 24%. The “Best response during treatment: PD, number of pts” value ([3]; initial 17 pts, RECIST) was 4, the “Best response during treatment: PR” value ([3]; initial 17 pts, RECIST) was 6% and the “Best response during treatment: PR, number of pts” value ([3]; initial 17 pts, RECIST) was 1. The “Best response during treatment: SD” value ([3]; initial 17 pts, RECIST) was 59%, the “Best response during treatment: SD, number of pts” value ([3]; initial 17 pts, RECIST) was 10 and the “Attribution to Pentamidine: Anorexia” value ([3]; per patient) was “possibly”. The “Attribution to Pentamidine: Diarrhea” value ([3]; per patient) was “No (2×) and possibly”, the “Attribution to Pentamidine: Elevated Lipase” value ([3]; per patient) was “posssibly; also recorded: definitely” and the “Attribution to Pentamidine: Fainting/syncope” value ([3]; per patient) was “No”. For the same molecule, the “Attribution to Pentamidine: General deterioration” value ([3]; per patient) was “No”, the “Attribution to Pentamidine: Hand-foot reaction” value ([3]; per patient) was “No” and the “Attribution to Pentamidine: Neutropenia” value ([3]; per patient) was “possibly”. For the same molecule, the “Attribution to Pentamidine: Urinary tract infection” value ([3]; per patient) was “No”, the “AE Grade: Anorexia” value [3, 10] was 3 and the “AE Grade: Diarrhea” value [3, 10] was 3. The “AE Grade: Elevated Lipase” value [3, 10] was 3, the “AE Grade: Fainting/syncope” value [3, 10] was 3 and the “AE Grade: General deterioration” value [3, 10] was 4. For the same molecule, the “AE Grade: Hand-foot reaction” value [3, 10] was 3, the “AE Grade: Neutropenia” value [3, 10] was 3 and the “AE Grade: Urinary tract infection” value [3, 10] was 3. The “toxicity of pentamidine with CTX (in words)” value ([3]; preliminary analysis) was “consistent with known side effects of pentamidine; also recorded: manageable”, the “Median OS time” value [3, 11] was “has not yet been reached” and the “median PFS time” value [3, 11] was 4.4 months. The “Percentage of cells killed” value ([4]; Pentamidine 0.15 mM alone) was 13%, the CC50 ([4]; HT-29, 48 h, read-out: LC50 of Pentamidine) was 270 µM and the CC50 ([4]; HT-29, read-out: LC50 of Pentamidine With CPT11 (0.25 μM)) was 12 µM. The CC50 ([4]; HT-29, read-out: LC50 of Pentamidine With Gemcitabine (0.26 μM)) was 30 µM, the CC50 ([4]; HT-29, read-out: LC50 of Pentamidine With Oxaliplatin (0.25 μM)) was 9 µM and the CC50 ([4]; HT-29, read-out: LC50 of Pentamidine with Taxol (2 μM)) was 130 µM. The “Percentage of cells killed” value ([5]; Pentamidine 0.15 mM alone) was 50%, the CC50 ([5]; NCI-H661, 48 h, read-out: LC50 of Pentamidine) was 150 µM and the CC50 ([5]; NCI-H661, read-out: LC50 of Pentamidine With CPT11 (0.25 μM)) was 3 µM. For the same molecule, the CC50 ([5]; NCI-H661, read-out: LC50 of Pentamidine With Gemcitabine (0.26 μM)) was 27 µM, the CC50 ([5]; NCI-H661, read-out: LC50 of Pentamidine With Oxaliplatin (0.25 μM)) was 3 µM and the CC50 ([5]; NCI-H661, read-out: LC50 of Pentamidine with Taxol (2 μM)) was 7 µM. For the same molecule, the CC50 ([6]; MCF7, 48 h, read-out: LC50 of Pentamidine) was 150 µM, the CC50 ([6]; MCF7, read-out: LC50 of Pentamidine With CPT11 (0.25 μM)) was 26 µM and the CC50 ([6]; MCF7, read-out: LC50 of Pentamidine With Gemcitabine (0.26 μM)) was 66 µM. The CC50 ([6]; MCF7, read-out: LC50 of Pentamidine With Oxaliplatin (0.25 μM)) was 9 µM, the CC50 ([6]; MCF7, read-out: LC50 of Pentamidine with Taxol (2 μM)) was 60 µM and the “Percentage of cells killed” value ([6]; Pentamidine 0.15 mM alone) was 50%. For the same molecule, the “overall survival compared with best current therapy” value (metastatic colon cancer) was “significantly enhances overall survival”.
In the case of `N.N.[Cl][Pt][Cl]` [Cis-platinum], the urinary excretion [7] is given as at most 75%.
In the case of `CCc1c2c(nc3ccc(OC(=O)N4CCC(N5CCCCC5)CC4)cc13)-c1cc3c(c(=O)n1C2)COC(=O)[C@]3(O)CC` [CPT-11, camptothecin-11], the “Percentage of cells killed” value ([4]; CPT-11 3.2 μM alone) is reported as 6%, the “Percentage of cells killed” value ([5]; CPT-11 3.2 μM alone) is reported as 14% and the “Percentage of cells killed” value ([6]; CPT-11 3.2 μM alone) is reported as 30%.
With `O=C1[O][Pt]2([NH][C@@H]3CCCC[C@H]3[NH]2)[O]C1=O` [Oxaliplatin, oxaliplatin] the “Percentage of cells killed” value ([4]; Oxaliplatin 0.25 μM alone) was 10%, the “Percentage of cells killed” value ([5]; Oxaliplatin 0.25 μM alone) was 14% and the “Percentage of cells killed” value ([6]; Oxaliplatin 0.25 μM alone) was 8%.
In the case of `Nc1ccn([C@@H]2O[C@H](CO)[C@@H](O)C2(F)F)c(=O)n1` [Gemcitabine, gemcitabine], the “Percentage of cells killed” value ([4]; Gemcitabine 0.26 μM alone) is reported as 23%, the “Percentage of cells killed” value ([5]; Gemcitabine 0.26 μM alone) is reported as 25% and the “Percentage of cells killed” value ([6]; Gemcitabine 0.26 μM alone) is reported as 23%.
